Data reported in EP3057949B1, “SECONDARY ALCOHOL QUINOLINYL MODULATORS OF ROR GAMMA T” (Janssen Pharmaceutica NV, priority 2013, dated 2015).

Molecular target: T1, full-length human RORγt (Homo sapiens, UniProt P51449)
T1 construct: expressed in transfected cells; host or cells: HEK293T
T1 sequence (P51449 1-497 isoform P51449-2): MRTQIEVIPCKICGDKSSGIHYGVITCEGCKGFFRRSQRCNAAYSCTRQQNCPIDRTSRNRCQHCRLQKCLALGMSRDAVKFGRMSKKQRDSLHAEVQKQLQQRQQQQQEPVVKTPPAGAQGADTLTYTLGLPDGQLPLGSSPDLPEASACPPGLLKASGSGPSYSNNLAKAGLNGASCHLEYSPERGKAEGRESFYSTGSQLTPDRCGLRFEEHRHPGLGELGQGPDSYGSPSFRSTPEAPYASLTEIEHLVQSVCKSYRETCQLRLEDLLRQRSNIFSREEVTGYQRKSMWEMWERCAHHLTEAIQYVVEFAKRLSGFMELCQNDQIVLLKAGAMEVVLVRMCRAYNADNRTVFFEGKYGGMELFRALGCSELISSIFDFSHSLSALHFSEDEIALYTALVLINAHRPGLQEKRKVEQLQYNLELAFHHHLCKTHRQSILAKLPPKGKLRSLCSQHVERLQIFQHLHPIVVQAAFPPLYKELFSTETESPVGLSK
Experiment: RORγt (full-length human) Reporter Assay (GAL4 luciferase, HEK293T cells)
Type: cell-based
Conditions: for IC50: overnight (16 to 20 hours) incubation, read-out: RORγt (FL) Reporter Assay, IC50
Method: Compounds were assessed for RORgt functional modulation using either the RORgt ligand binding domain (LBD) reporter assay, or the RORgt full-length (FL) reporter assay.
A reporter assay was used to test functional activity of RORγt modulatory compounds on transcriptional activation driven by full-length human RORγt. Cells used in this assay were transiently co-transfected with three different plasmids, one expressing the GAL4-DNA binding domain (DBD)-RORγt fusion protein under control of a CMV promoter (NH2-Gal4-DBD:RORC-COOH in pCMV-BD, Stratagene #211342), and two reporter plasmids - the firefly luciferase reporter under control of a GAL4 promoter (pFR-Luc 2x GAL4) and Renilla luciferase reporter under control of CMV promoter (pRL-CMV, Promega #E2261). The full-length coding sequence was used for human RORγt, i.e., nucleotides 142-1635 of human RORγt, transcript variant 2, NCBI Accession: NM_001001523.1 (SEQ ID NO:1). HEK293T cells were plated at 35000 per well in 96-well plate in medium of MEM with 8.6% FBS. After 18-22 hours incubation, the transfection was carried out by using a PEI solution with 170.5 ng total DNA/well (50 ng pCMV-BD-ROR plus 20 ng of pFR-Luc reporter and 0.5 ng of pRL-CMV reporter plus 100 ng Carrier DNA (Clontech # 630440) for each well). 4-6 hours after transfection, cells were treated with compounds for overnight in the medium with final concentration of FBS 1.1% and DMSO 0.1%. After overnight (16 to 20 hours) incubation, media were removed and cells were lysed with 20 µL 1x Passive Lysis Buffer (Promega) for 10-15 minutes. Luminescence was measured using a BMG LUMIstar OPTIMA plate reader, after addition of 75 µL/well firefly luciferase buffer, followed by 75 µL/well Renilla luciferase buffer. To calculate the effect of compounds on RORγt activity, firefly values were normalized against values of DMSO only and values of reference compound at saturating concentration, then further normalized against Renilla signals. IC50s were generated by plotting final Renilla normalized data against compound concentration and percent inhibition was calculated against DMSO control.

SMILES | inhibition at 0.67 µM (HEK-293T, 0.67 µM compound concentration (footnote *), read-out: RORγt (FL) Reporter Assay, % inhibition (values marked *)) [%] | IC50 [µM] | inhibition at 2 µM (HEK-293T, 2 µM compound, read-out: RORγt (FL) Reporter Assay, % inhibition @ 2 µM) [%]
COc1nc2ccc(C(O)c3cnc(C)n3C)cc2c(Cl)c1Cc1ccc(C(F)(F)F)cc1 (single isomer, unassigned) [Example 15b, (4-Chloro-2-methoxy-3-(4-(trifluoromethyl)benzyl)quinolin-6-yl)(1,2-dimethyl-1H-imidazol-5-yl)methanol] | 85 | 0.091 | 
COc1nc2ccc(C(O)c3cnc(C)n3C)cc2c(Cl)c1Cc1ccc(C(F)(F)F)cc1 (single isomer, unassigned) [Example 15c, (4-Chloro-2-methoxy-3-(4-(trifluoromethyl)benzyl)quinolin-6-yl)(1,2-dimethyl-1H-imidazol-5-yl)methanol] |  | 0.058 | 96
